Assay results reported in US10858352B2, “Pharmaceutical compounds” (Heptares Therapeutics Limited, priority 2018, dated 2020).
Read-outs that look alike come from different tables or passages of the source.

How the values were obtained:
[1] = target: T1, human muscarinic M4 receptor (Homo sapiens, UniProt P08173); test: Alphascreen Surefire phospho-ERK1/2 functional assay, M4; format: cell-based; conditions: for EC50: read-out: pEC50 M4 (converted); for Emax: CHO, read-out: % Emax cf. ACh (M4), CHO cells stably expressing human M4; for Emax / % Emax cf. ACh (M4): Emax relative to ACh
T1 construct: expressed in transfected cells
T1 sequence (P08173 1-479): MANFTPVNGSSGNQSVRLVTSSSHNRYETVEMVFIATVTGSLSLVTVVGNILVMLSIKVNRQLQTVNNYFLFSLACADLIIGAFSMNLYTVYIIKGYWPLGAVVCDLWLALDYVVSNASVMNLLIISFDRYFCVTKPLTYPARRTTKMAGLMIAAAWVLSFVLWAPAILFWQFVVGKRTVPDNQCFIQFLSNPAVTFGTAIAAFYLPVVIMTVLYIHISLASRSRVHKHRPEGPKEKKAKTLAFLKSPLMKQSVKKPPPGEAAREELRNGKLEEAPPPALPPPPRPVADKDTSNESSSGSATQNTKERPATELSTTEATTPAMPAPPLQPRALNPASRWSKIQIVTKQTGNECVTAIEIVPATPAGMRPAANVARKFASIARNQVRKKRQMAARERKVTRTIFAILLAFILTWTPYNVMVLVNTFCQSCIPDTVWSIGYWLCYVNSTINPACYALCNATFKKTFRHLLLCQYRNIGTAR
Procedure: (§1) ERK1/2 phosphorylation is a downstream consequence of both Gq/11 and Gi/o protein coupled receptor activation, making it highly suitable for the assessment of M1, M3 (Gq/11 coupled) and M2, M4 receptors (Gi/o coupled), rather than using different assay formats for different receptor subtypes. CHO cells stably expressing the human muscarinic M1, M2, M3 or M4 receptor were plated (25K/well) onto 96-well tissue culture plates in MEM-alpha+10% dialysed FBS. Once adhered, cells were serum-starved overnight. Agonist stimulation was performed by the addition of 5 μL agonist to the cells for 5 min (37° C.). Media was removed and 50 μL of lysis buffer added. After 15 min, a 4 μL sample was transferred to 384-well plate and 7 μL of detection mixture added. […]

[2] = target: T2, human muscarinic M1 receptor (Homo sapiens, UniProt P11229); test: Alphascreen Surefire phospho-ERK1/2 functional assay, M1; format: cell-based; conditions: for EC50 / pEC50 M1: agonist 5 min, 37° C.; for Emax: CHO, read-out: % Emax cf. ACh (M1), CHO cells stably expressing human M1; for Emax / % Emax cf. ACh (M1): Emax relative to ACh
T2 sequence (P11229 1-460): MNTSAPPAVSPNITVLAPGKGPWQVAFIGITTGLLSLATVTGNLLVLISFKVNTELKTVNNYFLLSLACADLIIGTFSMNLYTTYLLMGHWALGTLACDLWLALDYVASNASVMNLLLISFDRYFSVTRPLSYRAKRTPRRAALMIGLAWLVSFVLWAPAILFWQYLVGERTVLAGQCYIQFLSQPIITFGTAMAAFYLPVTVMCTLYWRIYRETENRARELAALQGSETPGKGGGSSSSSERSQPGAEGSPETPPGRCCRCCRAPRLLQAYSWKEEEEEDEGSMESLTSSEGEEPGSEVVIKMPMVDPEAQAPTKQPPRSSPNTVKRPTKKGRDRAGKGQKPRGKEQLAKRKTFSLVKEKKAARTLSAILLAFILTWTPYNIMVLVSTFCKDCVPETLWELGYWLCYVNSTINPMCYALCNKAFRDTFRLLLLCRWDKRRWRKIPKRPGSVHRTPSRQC
Procedure: as §1

[3] = CHO cells stably expressing human M4, agonist 5 min, 37° C.
[4] = CHO cells stably expressing human M1, read-out: pEC50 M1 (converted)
[5] = CHO cells stably expressing human M4
[6] = CHO cells stably expressing human M1
[7] = pEC50 M1, CHO cells stably expressing human M1

Cc1noc(N2CCCC(N3CCC4(CC3)CNC(=O)O4)CC2)n1 (racemic) [10-3 Racemic mixture]
EC50 [1, 3]: > 20000 nM | Emax [1]: 10% | EC50 [2, 4]: 372 nM | Emax [2]: 97%

CCN(C(C)=O)C1CCN(C2CCCN(c3nc(C)no3)CC2)CC1 (racemic) [10-11 Racemic mixture]
EC50 [1, 3]: 219 nM | Emax [1]: 101% | EC50 [2, 4]: 3980 nM | Emax [2]: 56%

CCOC(=O)[C@H]1[C@@H]2CN(C3CC4(CCN(c5nc(C)no5)C4)C3)C[C@@H]21 (single isomer, unassigned) [2-3 Isomer 2]
EC50 [1, 3]: 513 nM | Emax [1]: 32% | EC50 [2, 4]: > 20000 nM | Emax [2]: 9%

Cc1noc(N2CC3(CCC(N4CCC(n5cccn5)CC4)C3)C2)n1 (single isomer, unassigned) [3-1 Isomer 2]
EC50 [1, 3]: 1230 nM | Emax [1]: 68% | EC50 [2, 4]: 8320 nM | Emax [2]: 58%

Cc1noc(N2CC3CC(C2)C3N2CCC(n3cccn3)CC2)n1 (single isomer, unassigned) [5-1 Isomer 1]
EC50 [1, 3]: 1260 nM | Emax [1]: 55% | EC50 [2, 4]: > 20000 nM | Emax [2]: 9%

Cc1noc(N2C3CCC2CC(N2CCC4(CC2)CNC(=O)C4)C3)n1 (single isomer, unassigned) [6-2 Isomer 1]
% Emax cf. ACh (M4) [1, 5]: (9) % | EC50 [1, 3]: > 20000 nM | % Emax cf. ACh (M1) [2, 6]: (34) % | EC50 [2, 7]: 158 nM

Cc1noc(N2C3CCC2CC(N2CCC4(CC2)CNC(=O)C4)C3)n1 (single isomer, unassigned) [6-2 Isomer 2]
% Emax cf. ACh (M4) [1, 5]: (39) % | EC50 [1, 3]: 170 nM | % Emax cf. ACh (M1) [2, 6]: (81) % | EC50 [2, 7]: 63.1 nM

Cc1noc(N2C3CCC2CC(N2CCC4(CC2)CNC(=O)O4)C3)n1 (single isomer, unassigned) [6-4 Isomer 1]
% Emax cf. ACh (M4) [1, 5]: (15) % | EC50 [1, 3]: > 20000 nM | % Emax cf. ACh (M1) [2, 6]: (49) % | EC50 [2, 4]: 240 nM

Cc1noc(N2C3CCCC2CC(N2CCC(n4cccn4)CC2)C3)n1 (single isomer, unassigned) [8-1 Isomer 2]
EC50 [1, 3]: 1260 nM | Emax [1]: 38% | EC50 [2, 4]: > 20000 nM | Emax [2]: 24%

Cc1noc(N2C3CCCC2CC(N2CCC4(CC2)CNC(=O)C4)C3)n1 (single isomer, unassigned) [8-2 Isomer 1]
EC50 [1, 3]: > 20000 nM | Emax [1]: 9% | EC50 [2, 4]: 214 nM | Emax [2]: 30%

Cc1noc(N2C3CCCC2CC(N2CCC(C(=O)NC4(C)CCC4)CC2)C3)n1 (single isomer, unassigned) [8-4 Isomer 1]
EC50 [1, 3]: 646 nM | Emax [1]: 76% | EC50 [2, 4]: 575 nM | Emax [2]: 98%

Cc1noc(N2CCCC(N3CCC(n4cccn4)CC3)CC2)n1 (single isomer, unassigned) [10-1 Isomer 1]
EC50 [1, 3]: 129 nM | Emax [1]: 73% | EC50 [2, 4]: 1350 nM | Emax [2]: 32%

Cc1noc(N2CCCC(N3CCC(n4cccn4)CC3)CC2)n1 (single isomer, unassigned) [10-1 Isomer 2]
% Emax cf. ACh (M4) [1, 5]: (72) % | EC50 [1, 3]: 525 nM | % Emax cf. ACh (M1) [2, 6]: (43) % | EC50 [2, 4]: 6610 nM

Cc1noc(N2CCCC(N3CCC4(CC3)CNC(=O)C4)CC2)n1 (single isomer, unassigned) [10-2 Isomer 2]
% Emax cf. ACh (M4) [1, 5]: (15) % | pEC50 M4 [1, 3]: <4.70 | % Emax cf. ACh (M1) [2, 6]: (53) % | EC50 [2, 4]: 490 nM

CCC1NC(=O)OC12CCN(C1CCCN(c3nc(C)no3)CC1)CC2 (single isomer, unassigned) [10-4 Isomer 1]
% Emax cf. ACh (M4) [1, 5]: (85) % | EC50 [1, 3]: 100 nM | % Emax cf. ACh (M1) [2, 6]: (123) % | EC50 [2, 4]: 676 nM

CCC1NC(=O)OC12CCN(C1CCCN(c3nc(C)no3)CC1)CC2 (single isomer, unassigned) [10-4 Isomer 2]
% Emax cf. ACh (M4) [1, 5]: (64) % | EC50 [1, 3]: 23.4 nM | % Emax cf. ACh (M1) [2, 6]: (58) % | EC50 [2, 4]: 55 nM

CCC1NC(=O)OC12CCN(C1CCCN(c3nc(C)no3)CC1)CC2 (single isomer, unassigned) [10-4 Isomer 3]
% Emax cf. ACh (M4) [1, 5]: (71) % | EC50 [1, 3]: 2190 nM | % Emax cf. ACh (M1) [2, 6]: (81) % | EC50 [2, 4]: 9330 nM

CCC1NC(=O)OC12CCN(C1CCCN(c3nc(C)no3)CC1)CC2 (single isomer, unassigned) [10-4 Isomer 4]
% Emax cf. ACh (M4) [1, 5]: (36) % | EC50 [1, 3]: 871 nM | % Emax cf. ACh (M1) [2, 6]: (18) % | EC50 [2, 4]: > 20000 nM

Cc1noc(N2CCCC(N3CCC4(CC3)OC(=O)NC4(C)C)CC2)n1 (single isomer, unassigned) [10-5 Isomer 1]
EC50 [1, 3]: 219 nM | Emax [1]: 33% | EC50 [2, 4]: > 20000 nM | Emax [2]: 21%

Cc1noc(N2CCCC(N3CCC(N4C[C@H](F)C[C@@H]4CO)CC3)CC2)n1 (single isomer, unassigned) [10-7 Isomer 2]
% Emax cf. ACh (M4) [1, 5]: (76) % | EC50 [1, 3]: 398 nM | % Emax cf. ACh (M1) [2, 6]: (70) % | EC50 [2, 4]: 4270 nM

Cc1noc(N2CCCC(N3CCC(N4CC(F)(F)C[C@@H]4CO)CC3)CC2)n1 (single isomer, unassigned) [10-8 Isomer 1]
EC50 [1, 3]: 93.3 nM | Emax [1]: 91% | EC50 [2, 4]: 676 nM | Emax [2]: 37%

Cc1noc(N2CCCC(N3CCC(N4CC(F)(F)C[C@@H]4CO)CC3)CC2)n1 (single isomer, unassigned) [10-8 Isomer 2]
% Emax cf. ACh (M4) [1, 5]: (73) % | EC50 [1, 3]: 295 nM | % Emax cf. ACh (M1) [2, 6]: (35) % | EC50 [2, 4]: 1550 nM

CC[C@H]1CCC(=O)N1C1CCN(C2CCCN(c3nc(C)no3)CC2)CC1 (single isomer, unassigned) [10-9 Isomer 2]
EC50 [1, 3]: 479 nM | Emax [1]: 56% | EC50 [2, 4]: 1320 nM | Emax [2]: 53%

Cc1noc(N2CCCC(N3CCC(N4CCCC4c4cnn(C)c4)CC3)CC2)n1 (single isomer, unassigned) [10-10 Isomer 1b]
EC50 [1, 3]: 513 nM | Emax [1]: 56% | % Emax cf. ACh (M1) [2, 6]: (6) % | EC50 [2, 4]: > 20000 nM

Cc1noc(N2CCCC(N3CCC(N4CCCC4c4cnn(C)c4)CC3)CC2)n1 (single isomer, unassigned) [10-10 Isomer 2a]
% Emax cf. ACh (M4) [1, 5]: (52) % | EC50 [1, 3]: 1450 nM | % Emax cf. ACh (M1) [2, 6]: (3) % | pEC50 M1 [2, 6]: <4.70

Cc1noc(N2CCCC(N3CCC(N4CCCC4c4cnn(C)c4)CC3)CC2)n1 (single isomer, unassigned) [10-10 Isomer 2b]
% Emax cf. ACh (M4) [1, 5]: (72) % | EC50 [1, 3]: 316 nM | % Emax cf. ACh (M1) [2, 6]: (14) % | pEC50 M1 [2, 6]: <4.70

CNC(=O)N1CCC[C@H]1C1CCN(C2CCCN(c3nc(C)no3)CC2)CC1 (single isomer, unassigned) [10-12 Isomer 1]
EC50 [1, 3]: 309 nM | Emax [1]: 100% | EC50 [2, 4]: > 20000 nM | Emax [2]: 22%

CNC(=O)N1CCC[C@H]1C1CCN(C2CCCN(c3nc(C)no3)CC2)CC1 (single isomer, unassigned) [10-12 Isomer 2]
% Emax cf. ACh (M4) [1, 5]: (119) % | EC50 [1, 3]: 55 nM | % Emax cf. ACh (M1) [2, 6]: (24) % | pEC50 M1 [2, 6]: <4.70

Cc1noc(N2CC3CC(N4CCC(n5cccn5)CC4)CC2C3)n1 (single isomer, unassigned) [11-1 Isomer 2]
EC50 [1, 3]: 1050 nM | Emax [1]: 69% | EC50 [2, 4]: 3160 nM | Emax [2]: 48%

Cc1noc(N2CC3CCC2CC3N2CCC3(CC2)CNC(=O)C3)n1 (single isomer, unassigned) [12-1 Isomer 1]
% Emax cf. ACh (M4) [1, 5]: (5) % | EC50 [1, 3]: > 20000 nM | % Emax cf. ACh (M1) [2, 6]: (58) % | EC50 [2, 4]: 603 nM

Cc1noc(N2C3CCC2CC(N2CCC(C(=O)NC4(C(F)(F)F)CCC4)CC2)C3)n1 (single isomer, unassigned) [12-7 Isomer 2]
EC50 [1, 3]: 2000 nM | Emax [1]: 109% | EC50 [2, 4]: 537 nM | Emax [2]: 109%
